pIC50: −log10 of the molar value. Where two headings read alike, the source gives them in different places.
Legend:
JEV = JEV cell based virus CPE reduction assay; set-up: species or system Japanese Encephalitis Virus; conditions: for CC50: read-out: TC50 (the source's name)
Description: (§1) The use of N-(2,3-dihydro-1H-inden-5-yl)-2-(4-oxo-3-phenyl-3,4-dihydroquinazolin-2-yl)thio) acetamide, a compound employed according to the present disclosure, for treating West Nile Virus has been disclosed. For example, please see Chung et al. A Cell Based Assay for the Identification of Lead Compounds with Anti-Viral Activity Against West Nile Virus, Probe Reports from the NIH Molecular Libraries Program[Internet]. Bethesda (Md.): National Center for Biotechnology Information (US); 2010-2010 Feb. 27 [updated 2010 Oct. 4], PMID: 21433390 [PubMed].

[1] = JEV cell based virus CPE reduction assay; set-up: species or system Japanese Encephalitis Virus; conditions: read-out: TC50 (the source's name)
Description: as §1

HCV Con1b (Replicon) = HCV Con1b (Replicon) Luciferase end-point; type: cell-based, Hepatitis C Virus; conditions: for CC50: read-out: TC50 (the source's name)
[2] = HCV Con1b (Replicon) Luciferase end-point; type: cell-based, Hepatitis C Virus; conditions: HCV Con1b subgenomic replicon cell line, read-out: TC50 (the source's name)
HCV Con 1b (Replicon) = HCV Con 1b (Replicon) RNA end-point; type: cell-based, Hepatitis C Virus
Experimental: (§2) The reduction in HCV was determined with two assays using viral RNA endpoints. […] This cell line expresses a subgenomic section of the HCV genome containing NS2a, NS2b, NS3a, NS3b, NS4a, NS4b, NS5a and NS5b.

WNV = WNV antiviral assay; type: cell-based, West Nile Virus; conditions: West Nile virus
Description: as §1

WNV antiviral assay = type: cell-based, West Nile Virus; conditions: read-out: TC50 (the source's name)
Description: as §1

[3] = HCV Con 1b (Replicon) RNA end-point; type: cell-based, Hepatitis C Virus; conditions: HCV Con 1b subgenomic replicon cell line; HCV Con 1b replicon, RNA end-point; read-out: TC50 (the source's name)
Experimental: as §2

Cc1csc(NC(=O)CSc2nc3ccccc3c(=O)n2-c2ccc(Cl)c(Cl)c2)n1 [Example C8, 2-(3-(3,4-dichlorophenyl)-4-oxo-3,4-dihydroquinazolin-2-ylthio)-N-(4-methylthiazol-2-yl)acetamide]
pIC50 (JEV; Japanese encephalitis virus): 4.60 to 5.30 | CC50 [1]: ≥ 100 µM | pIC50 (HCV Con1b (Replicon); Hepatitis C virus): 5.30 to 6.00 | CC50 [2]: ≥ 100 µM

COc1cccc2c(=O)n(-c3ccccc3)c(SCC(=O)Nc3ccc4c(c3)CCC4)nc12 [Example C17, N-indan-5-yl-2-(8-methoxy-4-oxo-3-phenyl(3-hydroquinazolin-2-ylthio))acetamide]
pIC50 (JEV): 4.60 to 5.30 | CC50 (JEV): ≥ 100 µM | pIC50 (HCV Con1b (Replicon)): 5.30 to 6.00 | CC50 (HCV Con1b (Replicon)): ≥ 100 µM

Cc1csc(NC(=O)CSc2nc3ccccc3c(=O)n2-c2ccc(Cl)c(Cl)c2)n1 [Example C24, 2-[3-(3,4-dichlorophenyl)-4-oxo(3-hydroquinazolin-2-ylthio)]-N-(4-methyl(1,3-thiazol-2-yl))acetamide]
pIC50 (JEV): 4.60 to 5.30 | CC50 (JEV): ≥ 100 µM | pIC50 (HCV Con1b (Replicon)): 5.30 to 6.00 | CC50 (HCV Con1b (Replicon)): ≥ 100 µM

O=C(CSc1nc2cccc(F)c2c(=O)n1-c1ccccc1)Nc1ccc2c(c1)CCC2 [Example C15, 2-(5-fluoro-4-oxo-3-phenyl(3-hydroquinazolin-2-ylthio))-N-indan-5-ylacetamide]
pIC50 (JEV): 4.60 to 5.30 | CC50 (JEV): ≥ 100 µM | pIC50 (HCV Con 1b (Replicon); HCV Con 1b replicon, RNA end-point): 5.30 to 6.00 | CC50 (HCV Con 1b (Replicon); HCV Con 1b replicon, RNA end-point, read-out: TC50 (the source's name)): ≥ 100 µM

O=C(CSc1nc2ccccc2c(=O)n1-c1ccccc1)Nc1ccc2c(c1)CCC2 [Example C1]
pIC50 (WNV): 4.60 to 5.30 | CC50 (WNV antiviral assay): ≥ 100 µM | pIC50 (HCV Con 1b (Replicon); Hepatitis C virus, HCV Con 1b replicon, RNA end-point): 4.60 to 5.30 | activity against Hepatitis C Virus (HCV Con 1b (Replicon); text statement referring to Table 1): activity was observed | CC50 [3]: ≥ 100 µM
